Laboratory results reported in ChEMBL document CHEMBL4808194, “Design, synthesis and biological evaluation of novel 2,4-disubstituted quinazoline derivatives targeting H1975 cells via EGFR-PI3K signaling pathway” (Bioorg Med Chem, 2021).

Legend:
Test in all cases: cells
Type in all cases: functional, cell-based
MDA-MB-231 = conditions: Homo sapiens, MDA-MB-231, 72 h
MGC-803 = conditions: Homo sapiens, MGC-803, 72 h
Description: Antiproliferative activity against human MGC-803 cells assessed as inhibition of cell growth incubated for 72 hrs by MTT assay

NCI-H1975 = conditions: Homo sapiens, NCI-H1975, 72 h
Description: Antiproliferative activity against human NCI-H1975 cells assessed as inhibition of cell growth incubated for 72 hrs by MTT assay

PC-3 = conditions: Homo sapiens, PC-3, 72 h
Description: Antiproliferative activity against human PC-3 cells assessed as inhibition of cell growth incubated for 72 hrs by MTT assay

**Q.** With `C=CC(=O)Nc1cccc(NC(=O)CSc2nc(Nc3ccccc3Br)c3ccccc3n2)c1` as the molecule, how does the IC50 (MDA-MB-231) read?
**A.** 15.2 µM

**Q.** What about the IC50 (MGC-803) of the same molecule?
**A.** 12.8 µM

**Q.** And the IC50 (NCI-H1975)?
**A.** 19.3 µM

**Q.** What about the IC50 (PC-3) of the same molecule?
**A.** 17.1 µM

**Q.** For `CCc1cccc(NC(=O)CSc2nc(Nc3ccccc3)c3ccccc3n2)c1`, which IC50 (MDA-MB-231) is on record?
**A.** 12.4 µM

**Q.** And the IC50 (MGC-803)?
**A.** 15.8 µM

**Q.** And the IC50 (NCI-H1975)?
**A.** 12 µM

**Q.** And the IC50 (PC-3)?
**A.** 11 µM

**Q.** With `O=C(CSc1nc(Nc2ccccc2)c2ccccc2n1)Nc1cccc(Cl)c1` as the molecule, how does the IC50 (MDA-MB-231) read?
**A.** 16.5 µM

**Q.** And the IC50 (MGC-803)?
**A.** 14.3 µM

**Q.** And the IC50 (NCI-H1975)?
**A.** 8.46 µM

**Q.** What about the IC50 (PC-3) of the same molecule?
**A.** 12.6 µM

**Q.** What does the source list for `C=CC(=O)Nc1cccc(NC(=O)CSc2nc(Nc3cccc([N+](=O)[O-])c3)c3ccccc3n2)c1`?
**A.** IC50 (MDA-MB-231): > 50 µM; IC50 (MGC-803): > 50 µM; IC50 (NCI-H1975): 22.6 µM; IC50 (PC-3): 46.3 µM

**Q.** What does the source list for `C=CC(=O)Nc1cccc(NC(=O)CSc2nc(Nc3cccc(Cl)c3)c3ccccc3n2)c1`?
**A.** IC50 (MDA-MB-231): 16.3 µM; IC50 (MGC-803): 7.83 µM; IC50 (NCI-H1975): 9.46 µM; IC50 (PC-3): 12.3 µM

**Q.** For `C=CC(=O)Nc1cccc(NC(=O)CSc2nc(Nc3cccc(Br)c3)c3ccccc3n2)c1`, which IC50 (MDA-MB-231) is on record?
**A.** 19.4 µM

**Q.** And the IC50 (MGC-803)?
**A.** 11.9 µM

**Q.** And the IC50 (NCI-H1975)?
**A.** 12.1 µM

**Q.** What about the IC50 (PC-3) of the same molecule?
**A.** 15 µM

**Q.** What does the source list for `O=C(CSc1nc(Nc2ccccc2)c2ccccc2n1)Nc1ccccc1Cl`?
**A.** IC50 (MDA-MB-231): 24.4 µM; IC50 (MGC-803): 24.8 µM; IC50 (NCI-H1975): 9.61 µM; IC50 (PC-3): 14.6 µM

**Q.** What does the source list for `O=C(CSc1nc(Nc2ccccc2)c2ccccc2n1)Nc1ccc(Cl)cc1`?
**A.** IC50 (MDA-MB-231): 17.2 µM; IC50 (MGC-803): 40.4 µM; IC50 (NCI-H1975): 8.04 µM; IC50 (PC-3): 12.8 µM

**Q.** For `CCc1ccc(NC(=O)CSc2nc(Nc3ccccc3)c3ccccc3n2)cc1`, which IC50 (MDA-MB-231) is on record?
**A.** 33.9 µM

**Q.** What about the IC50 (MGC-803) of the same molecule?
**A.** > 50 µM

**Q.** What about the IC50 (NCI-H1975) of the same molecule?
**A.** 9.91 µM

**Q.** And the IC50 (PC-3)?
**A.** 17.9 µM

**Q.** What does the source list for `O=C(CSc1nc(Nc2ccccc2)c2ccccc2n1)Nc1ccccc1F`?
**A.** IC50 (MDA-MB-231): > 50 µM; IC50 (MGC-803): 10.7 µM; IC50 (NCI-H1975): 9.35 µM; IC50 (PC-3): 12.4 µM

**Q.** Which results are given for `O=C(CSc1nc(Nc2ccccc2)c2ccccc2n1)Nc1ccc(Cl)c(Cl)c1`?
**A.** IC50 (MDA-MB-231): 14.5 µM; IC50 (MGC-803): 37.9 µM; IC50 (NCI-H1975): 10.4 µM; IC50 (PC-3): 12.1 µM

**Q.** How did the IC50 (MDA-MB-231) turn out when `O=C(CSc1nc(Nc2ccccc2)c2ccccc2n1)Nc1ccc(C(F)(F)F)cc1` was run?
**A.** 11.1 µM

**Q.** And the IC50 (MGC-803)?
**A.** 8.67 µM

**Q.** And the IC50 (NCI-H1975)?
**A.** 11.7 µM

**Q.** What about the IC50 (PC-3) of the same molecule?
**A.** 10.4 µM

**Q.** For `C=CC(=O)Nc1cccc(NC(=O)CSc2nc(Nc3ccc(Br)cc3)c3ccccc3n2)c1`, which IC50 (MDA-MB-231) is on record?
**A.** 17.2 µM

**Q.** What about the IC50 (MGC-803) of the same molecule?
**A.** 11.5 µM

**Q.** And the IC50 (NCI-H1975)?
**A.** 6.28 µM

**Q.** And the IC50 (PC-3)?
**A.** 12.4 µM

**Q.** How did the IC50 (MDA-MB-231) turn out when `C=CC(=O)Nc1cccc(NC(=O)CSc2nc(Nc3ccccc3C)c3ccccc3n2)c1` was run?
**A.** 20.4 µM

**Q.** What about the IC50 (MGC-803) of the same molecule?
**A.** 30.2 µM

**Q.** And the IC50 (NCI-H1975)?
**A.** 9.92 µM

**Q.** And the IC50 (PC-3)?
**A.** 23.2 µM

**Q.** How did the IC50 (MDA-MB-231) turn out when `C=CC(=O)Nc1cccc(NC(=O)CSc2nc(Nc3ccc(Cl)cc3)c3ccccc3n2)c1` was run?
**A.** 10.3 µM

**Q.** And the IC50 (MGC-803)?
**A.** 14.3 µM

**Q.** What about the IC50 (NCI-H1975) of the same molecule?
**A.** 7.58 µM

**Q.** What about the IC50 (PC-3) of the same molecule?
**A.** 10.8 µM

**Q.** How did the IC50 (MDA-MB-231) turn out when `C=CC(=O)Nc1cccc(NC(=O)CSc2nc(Nc3ccccc3Cl)c3ccccc3n2)c1` was run?
**A.** 12.7 µM

**Q.** And the IC50 (MGC-803)?
**A.** 20.7 µM

**Q.** And the IC50 (NCI-H1975)?
**A.** 10 µM

**Q.** What about the IC50 (PC-3) of the same molecule?
**A.** 14.4 µM

**Q.** What does the source list for `O=C(CSc1nc(Nc2ccccc2)c2ccccc2n1)Nc1ccccc1Br`?
**A.** IC50 (MDA-MB-231): 14.1 µM; IC50 (MGC-803): 18.6 µM; IC50 (NCI-H1975): 10.3 µM; IC50 (PC-3): 19.8 µM

**Q.** `O=C(CSc1nc(Nc2ccccc2)c2ccccc2n1)Nc1ccc(Cl)cc1Cl` was tested. Which IC50 (MDA-MB-231) did it give?
**A.** 19.4 µM

**Q.** And the IC50 (MGC-803)?
**A.** 12.3 µM

**Q.** What about the IC50 (NCI-H1975) of the same molecule?
**A.** 8.41 µM

**Q.** And the IC50 (PC-3)?
**A.** 9.11 µM

**Q.** With `C=CC(=O)Nc1cccc(NC(=O)CSc2nc(Nc3cccc(OC)c3)c3ccccc3n2)c1` as the molecule, how does the IC50 (MDA-MB-231) read?
**A.** 12.9 µM

**Q.** What about the IC50 (MGC-803) of the same molecule?
**A.** 24.2 µM

**Q.** What about the IC50 (NCI-H1975) of the same molecule?
**A.** 7.94 µM

**Q.** And the IC50 (PC-3)?
**A.** 34.9 µM

**Q.** Which IC50 (MDA-MB-231) does the source give for `O=C(CSc1nc(Nc2ccccc2)c2ccccc2n1)Nc1cccc(F)c1` here?
**A.** > 50 µM

**Q.** What about the IC50 (MGC-803) of the same molecule?
**A.** 12.7 µM

**Q.** What about the IC50 (NCI-H1975) of the same molecule?
**A.** 6.79 µM

**Q.** What about the IC50 (PC-3) of the same molecule?
**A.** 15.6 µM

**Q.** How did the IC50 (MDA-MB-231) turn out when `C=CC(=O)Nc1cccc(NC(=O)CSc2nc(Nc3cc(OC)c(OC)c(OC)c3)c3ccccc3n2)c1` was run?
**A.** > 50 µM

**Q.** What about the IC50 (MGC-803) of the same molecule?
**A.** > 50 µM

**Q.** What about the IC50 (NCI-H1975) of the same molecule?
**A.** > 50 µM

**Q.** What about the IC50 (PC-3) of the same molecule?
**A.** > 50 µM

**Q.** What does the source list for `C=CC(=O)Nc1cccc(NC(=O)CSc2nc(Nc3ccc(Cl)c(Cl)c3)c3ccccc3n2)c1`?
**A.** IC50 (MDA-MB-231): 17.7 µM; IC50 (MGC-803): > 50 µM; IC50 (NCI-H1975): 19.1 µM; IC50 (PC-3): 27.6 µM

**Q.** What does the source list for `O=C(CSc1nc(Nc2ccccc2)c2ccccc2n1)Nc1ccc(F)c(Cl)c1`?
**A.** IC50 (MDA-MB-231): 21.6 µM; IC50 (MGC-803): 20.9 µM; IC50 (NCI-H1975): 9.39 µM; IC50 (PC-3): 15.5 µM
